Consider 10 molecules from patent publication US20080161232A1, “C5a Receptor Antagonist” (JERINI AG, priority 2005, published 2008).

Molecules are shown by their SMILES. pIC50: −log10 of the molar value. Starred links: 1 amine or outer side, 2 acyl side, 3 side chain; linkers in the order of their positions; H or OH if unused. Positions of bridges follow the written chain, without caps; N, C: chain ends. Non-standard residues stand in square brackets, D forms with d. Residues, ends and D or L forms follow the SMILES beside them. *: point of attachment. X9 = COc1ccc(Cn2cnc(C[C@H](N[*:1])C(=O)[*:2])c2)cc1; Dihydroorotyl(S) = O=C1C[C@@H](C(=O)*)NC(=O)N1; Phe(2-CF3) = N[C@@H](Cc1ccccc1C(F)(F)F)C(=O)O; Phe(2-Cl) = N[C@@H](Cc1ccccc1Cl)C(=O)O; Phe(4-F) = N[C@@H](Cc1ccc(F)cc1)C(=O)O; X5 = CCN(CC)CCC[C@H](N[*:1])C(=O)[*:2]; Bta = N[C@@H](Cc1csc2ccccc12)C(=O)O; Hyp = O=C(O)[C@@H]1C[C@@H](O)CN1; d(hLeu) = CC(C)CC[C@@H](N)C(=O)O; 2Thi = N[C@@H](Cc1cccs1)C(=O)O; Cha = N[C@@H](CC1CCCCC1)C(=O)O; dCha = N[C@H](CC1CCCCC1)C(=O)O; Orn = NCCC[C@H](N)C(=O)O

In the first test the target is T1, human C5aR(CD88) (Homo sapiens, UniProt P21730).
T1 construct: expressed in transfected cells; host or cells: rat basophilic leukemia cells (RBL)
T1 sequence (P21730 1-350): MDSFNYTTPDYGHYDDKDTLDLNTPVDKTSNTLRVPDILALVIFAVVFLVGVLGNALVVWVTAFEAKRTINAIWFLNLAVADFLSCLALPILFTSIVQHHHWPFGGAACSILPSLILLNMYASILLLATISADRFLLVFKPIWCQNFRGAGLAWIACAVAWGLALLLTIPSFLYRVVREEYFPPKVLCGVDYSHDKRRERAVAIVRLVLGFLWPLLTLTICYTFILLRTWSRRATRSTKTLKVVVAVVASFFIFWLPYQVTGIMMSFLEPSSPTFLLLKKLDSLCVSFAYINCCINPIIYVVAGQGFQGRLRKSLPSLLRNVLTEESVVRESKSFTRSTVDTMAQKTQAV
The test can be described thus: Determination of the IC50 value in an enzyme release assay (functional assay, antagonistic activity). In kind it is cell-based. The following applies: antagonistic activity; IC50 group in enzyme release assay, RBL cells expressing human C5aR(CD88); read-out: activity (group).
As to `CC(=O)N[C@@H](Cc1ccccc1)C(=O)N[C@@H](CCCN)C(=O)N1CCC[C@H]1C(=O)N[C@H](CC1CCCCC1)C(=O)N[C@@H](Cc1c[nH]c2ccccc12)C(=O)N[C@@H](CC1CCCCC1)C(N)=O` [Compound 65, Ac-Phe-Orn-Pro-cha-Trp-Cha-NH2] (Ac-F[Orn]P[dCha]W[Cha]-NH2), the pIC50 is 6.70 to 7.30.
With `CC(C)CC[C@H]1NC(=O)[C@@H]2CCCN2C(=O)[C@@H](NC(=O)[C@@H](N)Cc2ccccc2)CCCNC(=O)[C@H](Cc2ccccc2)NC(=O)[C@H](Cc2ccccc2Cl)NC1=O` [Compound 378, H-Phe-[Orn-Pro-hle-Ocf-Phe]] (H-F[Orn]P[d(hLeu)][Phe(2-Cl)]F; lactam 2-C), the pIC50 is 6.70 to 7.30.
Same read-out and setting: in the case of `N[C@@H](Cc1ccccc1)C(=O)N[C@H]1CCCNC(=O)[C@H](Cc2ccccc2)NC(=O)[C@H](Cc2c[nH]c3ccccc23)NC(=O)[C@@H](CC2CCCCC2)NC(=O)[C@@H]2C[C@@H](O)CN2C1=O` [Compound 357, H-Phe-[Orn-Hyp-cha-Trp-Phe]] (H-F[Orn][Hyp][dCha]WF; lactam 2-C) it was 7.30 to 7.70; in that of `COc1ccc(Cn2cnc(C[C@@H]3NC(=O)[C@H](Cc4c[nH]c5ccccc45)NC(=O)[C@@H](CC4CCCCC4)NC(=O)[C@@H]4CCCN4C(=O)[C@@H](NC(=O)[C@H](Cc4ccccc4)NC(C)=O)CCCNC3=O)c2)cc1` [compound 26] (Ac-F[Orn]P[dCha]W[X9]; lactam 2-C), 5.70 to 6.70.
Same read-out and setting: the figure for `CC(C)CC[C@@H](NC(=O)[C@@H]1CCCN1C(=O)[C@H](CCCN)NC(=O)[C@H](Cc1ccccc1)NC(=O)[C@@H]1CC(=O)NC(=O)N1)C(=O)N[C@@H](Cc1ccc(F)cc1)C(=O)N[C@@H](Cc1ccccc1)C(N)=O` [Compound 352, Hoo-Phe-Orn-Pro-hle-Pff-Phe-NH2] ({Dihydroorotyl(S)}-F[Orn]P[d(hLeu)][Phe(4-F)]F-NH2) is 7.30 to 7.70.
The same measure, in the same setting: in the case of `CCN(CC)CCC[C@H](NC(=O)[C@H](Cc1ccccc1)NC(C)=O)C(=O)N1CCC[C@H]1C(=O)N[C@H](CC1CCCCC1)C(=O)N[C@@H](Cc1csc2ccccc12)C(=O)N[C@@H](Cc1ccccc1)C(N)=O` [Compound 233, Ac-Phe-OrE-Pro-cha-Bta-Phe-NH2] (Ac-F[X5]P[dCha][Bta]F-NH2) it was 6.70 to 7.30.
As to `CC(=O)N[C@@H](Cc1ccccc1)C(=O)N[C@@H](CCCNC(=N)N)C(=O)N1CCC[C@H]1C(=O)N[C@H](CC1CCCCC1)C(=O)N[C@@H](Cc1c[nH]c2ccccc12)C(=O)N[C@@H](Cc1ccccc1)C(N)=O` [Compound 104, Ac-Phe-Arg-Pro-cha-Trp-Phe-NH2] (Ac-FRP[dCha]WF-NH2), the pIC50 is 6.70 to 7.30.
Regarding `CC(=O)N[C@@H](Cc1ccccc1)C(=O)N[C@@H](CCCN)C(=O)N1CCC[C@H]1C(=O)N[C@H](CC1CCCCC1)C(=O)N[C@@H](Cc1ccccc1C(F)(F)F)C(=O)N[C@@H](Cc1ccccc1)C(N)=O` [Compound 262, Ac-Phe-Orn-Pro-cha-Otf-Phe-NH2] (Ac-F[Orn]P[dCha][Phe(2-CF3)]F-NH2), the pIC50 is 6.70 to 7.30.
On the same count and under the same terms, the figure for `CC(=O)N[C@@H](Cc1ccccc1)C(=O)N[C@H]1CCCNC(=O)[C@H](Cc2cccs2)NC(=O)[C@H](Cc2c[nH]c3ccccc23)NC(=O)[C@@H](CC2CCCCC2)NC(=O)[C@@H]2CCCN2C1=O` [Compound 38, Ac-Phe-[Orn-Pro-cha-Trp-Thi]] (Ac-F[Orn]P[dCha]W[2Thi]; lactam 2-C) is 7.30 to 7.70.
Same read-out and setting: in the case of `CC(=O)N[C@@H](Cc1ccccc1)C(=O)N[C@@H](CCCN)C(=O)N1C[C@H](O)C[C@H]1C(=O)N[C@H](CCC(C)C)C(=O)N[C@@H](Cc1csc2ccccc12)C(=O)N[C@@H](Cc1ccccc1)C(N)=O` [Compound 244, Ac-Phe-Orn-Hyp-hle-Bta-Phe-NH2] (Ac-F[Orn][Hyp][d(hLeu)][Bta]F-NH2) it was 6.70 to 7.30.

Still in this test, the particulars now being: functional assay of example 11; noteworthy = IC50 less than 200 nM.
Take `CC(=O)N[C@@H](Cc1ccccc1)C(=O)N[C@H]1CCCNC(=O)[C@H](Cc2cccs2)NC(=O)[C@H](Cc2c[nH]c3ccccc23)NC(=O)[C@@H](CC2CCCCC2)NC(=O)[C@@H]2CCCN2C1=O` [Compound 38, Ac-Phe-[Orn-Pro-cha-Trp-Thi]] (Ac-F[Orn]P[dCha]W[2Thi]; lactam 2-C): the “inhibitory activity (in words)” value is recorded as “without significant loss of activity”.

The same test, now with this note: functional assay of example 11; noteworthy = IC50 less than 200 nM; listed as Ac-Phe-[Orn-Pro-cha-Trp-Thi].
In the case of `CC(=O)N[C@@H](Cc1ccccc1)C(=O)N[C@H]1CCCNC(=O)[C@H](Cc2cccs2)NC(=O)[C@H](Cc2c[nH]c3ccccc23)NC(=O)[C@@H](CC2CCCCC2)NC(=O)[C@@H]2CCCN2C1=O` [Compound 38, Ac-Phe-[Orn-Pro-cha-Trp-Thi]] (Ac-F[Orn]P[dCha]W[2Thi]; lactam 2-C), the “inhibitory activity (in words)” value was “noteworthy inhibitory activity”.
